In brackets after ≈: the same amount, converted by molar mass. Several values for one entry are separate records, joined by “and”; a condition that tells them apart may be missing. Equal values may be shown once. Activity calls are given as the source filed them. The rule behind the calls is not given here.
Experiments:
Staphylococcus aureus [1] = assay: Antibacterial activity against Staphylococcus aureus ATCC25923 assessed as prevention of visible growth by broth microdilution method; format: functional
Staphylococcus aureus [2] = assay: Antibacterial activity against Staphylococcus aureus ATCC29213 assessed as prevention of visible growth by broth microdilution method; format: functional
Escherichia coli [3] = assay: Antibacterial activity against Escherichia coli ATCC25922 assessed as prevention of visible growth by broth microdilution method; format: functional
Shigella flexneri = assay: Antibacterial activity against Shigella flexneri CMCC51572 assessed as prevention of visible growth by broth microdilution method; format: functional
Staphylococcus aureus [4] = assay: Antibacterial activity against methicillin-resistant Staphylococcus aureus 252 assessed as prevention of visible growth by broth microdilution method; format: functional
Staphylococcus aureus [5] = assay: Antibacterial activity against methicillin-resistant Staphylococcus aureus R3708 assessed as prevention of visible growth by broth microdilution method; format: functional
Staphylococcus aureus [6] = assay: Bacteriostatic effect against methicillin-resistant Staphylococcus aureus 252 assessed as decrease in CFU/ml at MIC measured for 24 hrs by CLSI based time-kill kinetic assays; format: functional
Salmonella typhi = assay: Antibacterial activity against Salmonella typhi CMCC50094 assessed as prevention of visible growth by broth microdilution method; format: functional, Salmonella enterica subsp. enterica serovar Typhi; details: Salmonella enterica
Homo sapiens [7] = species on record: Homo sapiens; assay: Inhibition of human ProRS expressed in Escherichia coli assessed as change in melting temperature in presence of AMPPNP at 0.5 mM by fluorescence-based thermal shift assay
[8] = Cytotoxicity against human HepG2 cells; format: toxicity, cell-based
[9] = Binding affinity to methicillin-resistant Staphylococcus aureus ProRS expressed in Escherichia coli assessed as dissociation constant in presence of 1 nM ATP by microscale thermophoresis assay
Staphylococcus aureus [10] = assay: Inhibition of methicillin-resistant Staphylococcus aureus ProRS expressed in Escherichia coli assessed as change in melting temperature in presence of AMPPNP at 0.5 mM by fluorescence-based thermal shift assay
Homo sapiens [11] = species on record: Homo sapiens; assay: Inhibition of human ProRS expressed in Escherichia coli assessed as generation of inorganic monophosphate by pre-transfer editing-based experiment; details: dose 0-100 µM, DDE = dose-dependent effect
[12] = molecular target: T1, Proline--tRNA ligase (Escherichia coli) (UniProt P16659); assay: Inhibition of Escherichia coil ProRS expressed in Escherichia coli assessed as change in melting temperature in presence of AMPPNP at 0.5 mM by fluorescence-based thermal shift assay
T1 sequence (whole entry): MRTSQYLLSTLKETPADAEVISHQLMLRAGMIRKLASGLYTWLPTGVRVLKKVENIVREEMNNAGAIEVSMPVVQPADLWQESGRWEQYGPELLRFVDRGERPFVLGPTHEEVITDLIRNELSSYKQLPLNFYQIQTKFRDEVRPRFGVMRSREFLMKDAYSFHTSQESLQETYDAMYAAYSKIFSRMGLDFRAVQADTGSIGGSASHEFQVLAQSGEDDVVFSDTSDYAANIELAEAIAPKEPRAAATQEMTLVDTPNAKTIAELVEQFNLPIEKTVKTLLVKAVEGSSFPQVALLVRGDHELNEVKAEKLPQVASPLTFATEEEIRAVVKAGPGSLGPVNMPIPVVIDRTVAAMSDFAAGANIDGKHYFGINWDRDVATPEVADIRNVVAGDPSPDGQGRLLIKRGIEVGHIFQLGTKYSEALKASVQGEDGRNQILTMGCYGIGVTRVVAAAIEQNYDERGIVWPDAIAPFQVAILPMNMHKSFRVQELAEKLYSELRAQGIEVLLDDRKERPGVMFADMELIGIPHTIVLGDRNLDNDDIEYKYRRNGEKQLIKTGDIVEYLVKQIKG

Saccharomyces cerevisiae = assay: Inhibition of Saccharomyces cerevisiae ProRS expressed in Escherichia coli assessed as generation of inorganic monophosphate at 0 to 100 uM by pre-transfer editing-based experiment; details: dose 0-100 µM, DDE = dose-dependent effect
[13] = molecular target: T2, Proline--tRNA ligase (Salmonella typhi) (UniProt Q8XEY9); assay: Inhibition of Salmonella typhi ProRS expressed in Escherichia coli assessed as change in melting temperature in presence of AMPPNP at 0.5 mM by fluorescence-based thermal shift assay; details: Salmonella enterica subsp. enterica serovar Typhi
T2 sequence (whole entry): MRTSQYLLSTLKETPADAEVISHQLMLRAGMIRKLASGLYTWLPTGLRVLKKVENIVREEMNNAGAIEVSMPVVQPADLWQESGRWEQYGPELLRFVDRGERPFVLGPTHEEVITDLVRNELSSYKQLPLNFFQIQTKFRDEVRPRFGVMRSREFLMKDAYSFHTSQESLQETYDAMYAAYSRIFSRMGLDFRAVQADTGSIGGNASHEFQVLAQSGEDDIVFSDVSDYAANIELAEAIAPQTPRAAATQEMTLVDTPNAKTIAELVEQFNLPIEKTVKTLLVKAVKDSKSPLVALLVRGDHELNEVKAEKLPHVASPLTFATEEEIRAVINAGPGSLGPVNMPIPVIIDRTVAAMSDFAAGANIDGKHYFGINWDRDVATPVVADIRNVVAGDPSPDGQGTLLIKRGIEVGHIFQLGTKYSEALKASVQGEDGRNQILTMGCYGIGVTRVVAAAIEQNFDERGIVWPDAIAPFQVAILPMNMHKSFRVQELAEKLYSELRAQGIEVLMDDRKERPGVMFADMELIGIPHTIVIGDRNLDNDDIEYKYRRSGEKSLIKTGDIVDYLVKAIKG

[14] = molecular target: T1, Proline--tRNA ligase (Escherichia coli); assay: Inhibition of Escherichia coli ProRS expressed in Escherichia coli assessed as generation of inorganic monophosphate by pre-transfer editing-based experiment; details: dose 0-100 µM, DDE = dose-dependent effect
[15] = Binding affinity to methicillin-resistant Staphylococcus aureus ProRS expressed in Escherichia coli assessed as dissociation constant in presence of 0.05 nM ATP by microscale thermophoresis assay
[16] = molecular target: T2, Proline--tRNA ligase (Salmonella typhi); assay: Inhibition of Salmonella typhi ProRS expressed in Escherichia coli assessed as generation of inorganic monophosphate by pre-transfer editing-based experiment; details: Salmonella enterica subsp. enterica serovar Typhi; dose 0-100 µM; DDE = dose-dependent effect
[17] = Binding affinity to methicillin-resistant Staphylococcus aureus ProRS expressed in Escherichia coli assessed as dissociation constant in presence of 2 nM ATP by microscale thermophoresis assay
[18] = (§1) Inhibition of methicillin-resistant Staphylococcus aureus ProRS expressed in Escherichia coli assessed as generation of inorganic monophosphate by pre-transfer editing-based experiment
Staphylococcus aureus [19] = assay: as §1; details: dose 0-100 µM, DDE = dose-dependent effect
[20] = Binding affinity to methicillin-resistant Staphylococcus aureus ProRS expressed in Escherichia coli assessed as dissociation constant in presence of 0.1 nM ATP by microscale thermophoresis assay
[21] = Binding affinity to methicillin-resistant Staphylococcus aureus ProRS expressed in Escherichia coli assessed as dissociation constant in presence of 0.5 nM ATP by microscale thermophoresis assay
[22] = Binding affinity to methicillin-resistant Staphylococcus aureus ProRS expressed in Escherichia coli assessed as dissociation constant in presence of 0.2 nM ATP by microscale thermophoresis assay
[23] = Binding affinity to methicillin-resistant Staphylococcus aureus ProRS expressed in Escherichia coli assessed as dissociation constant by microscale thermophoresis assay
Staphylococcus aureus [24] = assay: Bacteriostatic effect against methicillin-resistant Staphylococcus aureus 252 assessed as decrease in CFU/ml at 4 times of MIC measured for 24 hrs by CLSI based time-kill kinetic assays; format: functional
Escherichia coli [25] = assay: Bacteriostatic effect against Escherichia coli ATCC25922 assessed as decrease in CFU/ml at 1 to 4 times of MIC measured for 0 to 12 hrs by CLSI based time-kill kinetic assays; format: functional, organism-based; details: time 0-12 hrs
[26] = Selectivity index, ratio of CC50 for human HepG2 cells to MIC for methicillin-resistant Staphylococcus aureus 252; format: toxicity; details: read-out: Selectivity Index
Staphylococcus aureus [27] = assay: Resistance development in methicillin-resistant Staphylococcus aureus 252 assessed as fold increase in resistance after 15 days serial passage upto 256 ug/ml; format: functional; details: dose <= 256 µg/ml; time 15 day
Escherichia coli [28] = assay: Bacteriostatic effect against Escherichia coli ATCC25922 assessed as decrease in CFU/ml at 4 times of MIC measured for 24 hrs by CLSI based time-kill kinetic assays; format: functional
Staphylococcus aureus [29] = assay: Bactericidal activity against methicillin-resistant Staphylococcus aureus 252 assessed as bacterial killing measured after 24 hrs incubation by CLSI method; format: functional; details: read-out: MBC99.9
Staphylococcus aureus [30] = assay: Ratio of MBC99.9 for methicillin-resistant Staphylococcus aureus 252 to MIC for methicillin-resistant Staphylococcus aureus 252; format: functional
Staphylococcus aureus [31] = assay: Bacteriostatic effect against methicillin-resistant Staphylococcus aureus 252 assessed as decrease in CFU/ml at 1 to 4 times of MIC measured for 0 to 12 hrs by CLSI based time-kill kinetic assays; format: functional, organism-based; details: time 0-12 hrs
Escherichia coli [32] = assay: Resistance development in Escherichia coli ATCC25922 assessed as fold increase in resistance after 15 days serial passage upto 256 ug/ml; format: functional; details: dose <= 256 µg/ml; time 15 day
Escherichia coli [33] = assay: Ratio of MBC99.9 for Escherichia coli ATCC25922 to MIC for Escherichia coli ATCC25922; format: functional
Escherichia coli [34] = assay: Antibacterial activity against drug-resistance induced Escherichia coli ATCC25922 assessed as assessed as reversal of drug resistance measured after 10 days in compound free media by broth microdilution method; format: functional; details: ATCC25922, 240 h, time 10 day
Staphylococcus aureus [35] = assay: Antibacterial activity against drug-resistance induced methicillin-resistant Staphylococcus aureus 252 assessed as assessed as reversal of drug resistance measured after 10 days in compound free media by broth microdilution method; format: functional; details: Staphylococcus aureus, 252, 240 h; time 10 day

## C/C(=C\C(=O)OCCCCCCCCC(=O)O)C[C@@H]1OC[C@H](C[C@@H]2O[C@H]2[C@@H](C)[C@H](C)O)[C@@H](O)[C@H]1O [MUPIROCIN]
Staphylococcus aureus [1]
  MIC: 0.13 µg/mL (≈ 0.26 µM)
Staphylococcus aureus [2]
  MIC: 0.13 µg/mL (≈ 0.26 µM)
Escherichia coli [3]
  MIC: 32 µg/mL (≈ 63.9 µM)
Shigella flexneri
  MIC: 8 µg/mL (≈ 16 µM)
Staphylococcus aureus [4]
  MIC: 0.13 µg/mL (≈ 0.26 µM)
Staphylococcus aureus [5]
  MIC: 0.13 µg/mL (≈ 0.26 µM)
Staphylococcus aureus [6]
  Activity: 1.2 log10CFU/ml
Salmonella typhi
  MIC: 32 µg/mL (≈ 63.9 µM)

## O=C(CC1NCCCC1O)Cn1cnc2cc(Br)c(Cl)cc2c1=O (stereo not drawn) [HALOFUGINONE]
Homo sapiens [7]
  ΔTm: 13.6 °C and 17.4 °C
Staphylococcus aureus [1]
  MIC: > 64 µg/mL
[8]
  CC50: 4.32 µM
[9]
  Kd: 0.423 µM
Staphylococcus aureus [2]
  MIC: > 64 µg/mL
Staphylococcus aureus [10]
  ΔTm: 6.9 °C and 6 °C
Homo sapiens [11]
  inhibition: Dde
Escherichia coli [3]
  MIC: 64 µg/mL (≈ 154 µM)
[12]
  ΔTm: 17.4 °C
Saccharomyces cerevisiae
  inhibition: Dde
Shigella flexneri
  MIC: 64 µg/mL (≈ 154 µM)
[13]
  ΔTm: 12.5 °C
Staphylococcus aureus [4]
  MIC: 64 µg/mL (≈ 154 µM)
[14]
  inhibition: Dde
[15]
  Kd: 781 µM
Staphylococcus aureus [5]
  MIC: 64 µg/mL (≈ 154 µM)
[16]
  inhibition: Dde
Salmonella typhi
  MIC: > 64 µg/mL
[17]
  Kd: 0.216 µM
[18]
  IC50: 0.66 µM
Staphylococcus aureus [19]
  inhibition: Dde
[20]
  Kd: 628 µM
[21]
  Kd: 5.51 µM
[22]
  Kd: 11.6 µM
[23]
  Kd: 1020 µM

## O=C(C[C@@H]1CCCCN1)Cn1cnc2cc(Cl)c(F)cc2c1=O
Homo sapiens [7]
  ΔTm: 20.4 °C
Staphylococcus aureus [24]
  Activity: 2.1 log10CFU/ml
Escherichia coli [25]
  Activity: Active
Staphylococcus aureus [1]
  MIC: 4 µg/mL (≈ 11.8 µM)
[26]
  selectivity ratio: 3600
Staphylococcus aureus [27]
  fold change (FC): 15
Escherichia coli [28]
  Activity: 1.6 log10CFU/ml
[8]
  CC50: 0.076 µM
[9]
  Kd: 0.0675 µM
Staphylococcus aureus [2]
  MIC: 2 µg/mL (≈ 5.92 µM)
Staphylococcus aureus [10]
  ΔTm: 10.2 °C
Escherichia coli [3]
  MIC: 1 µg/mL (≈ 2.96 µM)
Shigella flexneri
  MIC: 1 µg/mL (≈ 2.96 µM)
Staphylococcus aureus [4]
  MIC: 1 µg/mL (≈ 2.96 µM)
[15]
  Kd: 276 µM
Staphylococcus aureus [5]
  MIC: 1 µg/mL (≈ 2.96 µM)
Staphylococcus aureus [29]
  MBC: 8 µg/mL (≈ 23.7 µM)
Staphylococcus aureus [30]
  Ratio: 8
Salmonella typhi
  MIC: 4 µg/mL (≈ 11.8 µM)
[17]
  Kd: 0.0303 µM
Staphylococcus aureus [31]
  Activity: Active
[18]
  IC50: 0.18 µM
[20]
  Kd: 205 µM
Escherichia coli [32]
  fold change (FC): 16
Escherichia coli [33]
  Ratio: 16
Escherichia coli [34]
  MIC: 8 µg/mL
Staphylococcus aureus [35]
  MIC: 4 µg/mL
[21]
  Kd: 0.691 µM
[22]
  Kd: 8.33 µM
[23]
  Kd: 376 µM

Source: ChEMBL document CHEMBL5150045, “Structure-Guided Design of Halofuginone Derivatives as ATP-Aided Inhibitors Against Bacterial Prolyl-tRNA Synthetase” (J Med Chem, 2022)
